From PubChem BioAssay (NCI)
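Cultured in 96-well plates, cells were exposed to test compound for 48 hours across five concentrations. Here, GI50 denotes the concentration required for 50% inhibition of growth. TGI: total growth inhibition.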

What was measured:
Assay in all cases: DTP human tumour cell line panel, 48 h
[1] = tested on: SN12C renal
[2] = tested on: UACC-257 melanoma
[3] = tested on: HOP-92 NSCLC
[4] = tested on: M14 melanoma
[5] = tested on: SF-268 CNS
[6] = tested on: HCT-15 colon
[7] = tested on: NCI-H522 lung
[8] = tested on: LOX IMVI melanoma
[9] = tested on: SF-539 CNS
[10] = tested on: ACHN renal

Compound	TGI [1]	TGI [2]	TGI [3]	TGI [4]	TGI [5]	TGI [6]	TGI [7]	TGI [8]	TGI [9]	TGI [10]	GI50 [1]	GI50 [2]	GI50 [3]	GI50 [4]	GI50 [5]	GI50 [6]	GI50 [7]	GI50 [8]	GI50 [10]	GI50 [9]
CCOC(=O)c1cc2cc([N+](=O)[O-])ccc2oc1=O	> 100 µM	> 100 µM	> 100 µM	> 100 µM	> 100 µM	> 100 µM	> 100 µM	> 100 µM	> 100 µM	> 100 µM										
COc1ccccc1OCC(COC(=O)Nc1ccc(C)cc1)OC(=O)Nc1ccc(C)cc1 (stereo not drawn)	42.3 µM	49.7 µM	29 µM	46.2 µM	46.2 µM	29.9 µM	31.5 µM	30.2 µM	37.7 µM	67.7 µM										
OCC1CC2CC1C1(C2)OCCO1 (stereo not drawn)	> 100 µM	> 100 µM	> 100 µM	> 100 µM	> 100 µM		> 100 µM	> 100 µM	> 100 µM	> 100 µM										
CN(C)c1ccc(/C=N/Nc2ccc(-c3nc4ccccc4[nH]3)cc2)cc1	> 50 µM	25.8 µM	> 50 µM	46.8 µM	39.8 µM	35.7 µM	31.2 µM	11.6 µM		41.7 µM	> 50 µM	9.81 µM	12.4 µM	13.2 µM	7.36 µM	6.73 µM	10.3 µM	4.86 µM	8.76 µM	
N#CC(C#N)=C/C=C/c1cccc([N+](=O)[O-])c1	30 µM	3.94 µM	7.71 µM	2.18 µM	12.9 µM	3.98 µM		2.37 µM	18.4 µM	2.22 µM	3.23 µM	1.33 µM	2.43 µM	0.658 µM	1.54 µM	1.39 µM		0.913 µM	0.927 µM	2.55 µM
CC(=O)OCC1OC(O[C@@H]2C[C@H]3C(C)(C)[C@H](OC(C)=O)CC[C@]3(C)[C@H]3CC[C@@H]4[C@]5(CC[C@@]4(C)[C@@]32C)O[C@@H]([C@H](O)C(C)(C)O)C[C@@H]5C)C(O)C(O)C1O (stereo partly drawn)	24 µM	24 µM	21.6 µM	17.6 µM	23.7 µM	5.94 µM	21.2 µM	15.6 µM		21.3 µM	11.1 µM	11.4 µM	10 µM	5.01 µM	9.34 µM	2.19 µM	7.1 µM	3.61 µM	9.23 µM	
O=C(O)c1oc2ccc([N+](=O)[O-])c3c2c1CCC3	> 100 µM	> 100 µM	> 100 µM	> 100 µM	> 100 µM		> 100 µM	> 100 µM	> 100 µM	> 100 µM										
C[P+](C)(CC(F)(F)F)c1ccccc1	> 100 µM	> 100 µM		> 100 µM		> 100 µM	> 100 µM	> 100 µM	> 100 µM	> 100 µM										
C[Si](C)(C)[C@@]1([Se]c2ccccc2)CC[C@@H]1C(=O)c1ccccc1	> 100 µM	> 100 µM		> 100 µM	> 100 µM	> 100 µM	58.1 µM	> 100 µM	> 100 µM	> 100 µM										
C=C1C(=O)O[C@H]2[C@H](OC(C)=O)[C@@H](C)CCC/C(C)=C/CC[C@]3(CO3)[C@H](O)C[C@@H]12	14.3 µM	26.1 µM	6.75 µM		13.6 µM	3.76 µM	20.2 µM	4.75 µM	9.27 µM	4.17 µM	4.26 µM	12.4 µM	2.11 µM		3.93 µM	1.84 µM	6.22 µM	2.07 µM	2.3 µM	3.2 µM
ClCc1ccc(Cn2cnc3ncnc(Cl)c32)cc1	14.9 µM	3.48 µM	2.52 µM	13 µM	3.43 µM		> 100 µM		3.74 µM		3.61 µM	1.57 µM	1.17 µM	2.73 µM	1.64 µM		4.3 µM			2.08 µM
CC(C)(C)c1ccc(C(O)(c2ccc(C(C)(C)C)cc2)c2ccc(C(C)(C)C)cc2)cc1	> 100 µM			> 100 µM	> 100 µM	> 100 µM	> 100 µM	> 100 µM	> 100 µM	> 100 µM										
COc1ccc2c(c1)[n+]([O-])c(-c1ccc(Cl)c(Cl)c1)c(N)[n+]2[O-]	> 100 µM	46.4 µM	> 100 µM	72.2 µM	> 100 µM	> 100 µM	27.6 µM		68.6 µM	> 100 µM										
Cc1nc(Nc2ccc([N+](=O)[O-])cc2)sc1C(=O)/C=C/c1ccc(N(C)C)cc1	> 100 µM	> 100 µM	> 100 µM		> 100 µM	> 100 µM	> 100 µM	> 100 µM	> 100 µM	> 100 µM										
C/C(=N\NC(=S)Nc1ccc([N+](=O)[O-])cc1S(=O)(=O)O)c1ccccn1	> 100 µM	> 100 µM	> 100 µM	> 100 µM	> 100 µM	> 100 µM		> 100 µM	> 100 µM	> 100 µM										
CN(C)/C(=N/C(=O)Nc1ccccc1)SCc1ccccc1	> 100 µM	> 100 µM		> 100 µM	> 100 µM	> 100 µM	> 100 µM	> 100 µM	> 100 µM	> 100 µM										
COCCn1cc(-c2csc(-c3c[nH]c4ccc(F)cc34)n2)c2cccnc21	> 100 µM		> 100 µM	> 100 µM	> 100 µM	> 100 µM	> 100 µM	> 100 µM	> 100 µM	> 100 µM	> 100 µM		6.28 µM	3.14 µM	7.67 µM	2.35 µM	2.19 µM	3.44 µM	5.27 µM	8.86 µM
CCOc1ccc(N2C(N)=NC(N)=NC2(C)C)cc1	> 100 µM	> 100 µM	> 100 µM		> 100 µM	> 100 µM	> 100 µM	> 100 µM	> 100 µM	> 100 µM	52.7 µM	> 100 µM	> 100 µM		49.3 µM	> 100 µM	> 100 µM	45.8 µM	> 100 µM	28.6 µM
COc1cc(C(N)=O)c(OC)c(OC)c1OC	> 100 µM		> 100 µM	> 100 µM	> 100 µM	> 100 µM	> 100 µM	> 100 µM	> 100 µM	> 100 µM										

Compound	TGI [1]	TGI [2]	TGI [3]	TGI [4]	TGI [5]	TGI [6]	TGI [7]	TGI [8]	TGI [9]	TGI [10]	GI50 [1]	GI50 [2]	GI50 [3]	GI50 [4]	GI50 [5]	GI50 [6]	GI50 [7]	GI50 [8]	GI50 [10]	GI50 [9]
O=C1CCCc2c(O)ccc(O)c21	> 100 µM	> 100 µM		> 100 µM	> 100 µM	> 100 µM	25.7 µM	> 100 µM	> 100 µM	> 100 µM										
C/C(=N\n1c(N)c(C#N)c(-c2ccc(Cl)cc2)c(C#N)c1=O)c1cccnc1	> 100 µM	> 100 µM	34.8 µM	> 100 µM	> 100 µM	> 100 µM		> 100 µM		> 100 µM	> 100 µM	> 100 µM		> 100 µM	> 100 µM	> 100 µM		> 100 µM	> 100 µM	
COc1cc(C=NCC(=O)CSC(c2ccccc2)c2ccccc2)cc(OC)c1OC	> 100 µM	60.5 µM	> 100 µM	> 100 µM	> 100 µM	> 100 µM		> 100 µM	> 100 µM	> 100 µM	25.8 µM	13.9 µM	8.59 µM	27 µM	34.6 µM	21.5 µM		23.1 µM	26.4 µM	33.1 µM
O=C1CCC(c2ccccc2)(c2ccccc2)CC1	> 100 µM	> 100 µM	> 100 µM	> 100 µM	> 100 µM	> 100 µM	> 100 µM	> 100 µM		> 100 µM										
NC(=O)c1ccc(NC(=O)c2oc3ccccc3c2-c2cnn(-c3ccccc3)c2)cc1	> 100 µM	> 100 µM	6.46 µM	> 100 µM	> 100 µM		> 100 µM	> 100 µM	> 100 µM	> 100 µM	> 100 µM	> 100 µM	1.69 µM	> 100 µM	5.79 µM		> 100 µM	> 100 µM	5.03 µM	> 100 µM
O=[N+]([O-])C(=C(c1ccccc1)c1ccccc1)[N+](=O)[O-]	30.9 µM	25.8 µM		25.4 µM	12.7 µM	32.6 µM	31.3 µM	9.68 µM	26.5 µM	25.5 µM										
Clc1cccc(C2SCc3nc4ccccc4n32)c1Cl (stereo not drawn)	32.5 µM	28.5 µM	30.1 µM	30.5 µM	36.5 µM	36.5 µM	32.1 µM		32.5 µM	35.3 µM										
CC1=CC(=O)c2[nH]c3ccccc3c2C1=O	8.17 µM	8.58 µM	7.36 µM	7.62 µM	7.89 µM	7.61 µM	7.24 µM		7.79 µM	7.54 µM	4.59 µM	4.57 µM	3.98 µM	4.21 µM	4.36 µM	4.2 µM	3.82 µM		4.14 µM	4.28 µM
CC(C)c1cc2c(O)c(c1)Cc1cc(C(C)C)cc(c1O)Cc1cc(C(C)C)cc(c1O)Cc1cc(C(C)C)cc(c1O)Cc1cc(C(C)C)cc(c1O)Cc1cc(C(C)C)cc(c1O)C2	> 100 µM	> 100 µM	> 100 µM	> 100 µM	> 100 µM	> 100 µM	> 100 µM		> 100 µM	> 100 µM										
CC(C)S(=O)(=O)n1c(N)nc2ccc(/C(=N/O)c3ccccc3)cc21	> 100 µM	> 100 µM	41.1 µM	65.9 µM	> 100 µM	79.3 µM	35.2 µM		49.6 µM	57.8 µM										
C(=C1/CCCCC([n+]2ccccc2)=N1)/c1ccccc1	> 100 µM		> 100 µM	> 100 µM	> 100 µM	> 100 µM	> 100 µM	> 100 µM	> 100 µM	> 100 µM										
CCCCCCCCSC(SCCCCCCCC)=C1C(=O)N(c2ccccc2)N=C1C	> 100 µM	93.1 µM	77.8 µM	> 100 µM	> 100 µM	> 100 µM	57.1 µM	36.2 µM		> 100 µM										
O=C1CCCC2COc3ccc(O)c1c32 (stereo not drawn)	> 100 µM	> 100 µM	> 100 µM	> 100 µM	> 100 µM	> 100 µM	> 100 µM		> 100 µM	> 100 µM										
Cc1cc(C(=O)NCCN(C)C)c2nc3ccccc3nc2c1	43.7 µM	17.2 µM		> 33.5 µM		27.6 µM	> 100 µM	9.17 µM	19.4 µM	> 51 µM										
OCC(O)C(OC1OC(CO)C(O)C(O)C1O)c1nn(-c2ccc(F)cc2)c2nc3cc(Cl)c(Cl)cc3cc12 (stereo not drawn)	> 100 µM	> 100 µM		> 100 µM	> 100 µM	> 100 µM	> 100 µM	> 100 µM	> 100 µM	> 100 µM										
Cc1ccc(C)c2sc3cc(=O)ccc-3nc12	> 100 µM	> 100 µM	83.3 µM	42.7 µM	> 100 µM	> 100 µM	67.6 µM		> 100 µM	> 100 µM										
NC(=O)c1ccc(-c2c3ccccc3cc3c2ccc2ccccc23)cc1		> 100 µM	25.8 µM	20.1 µM	18.1 µM	> 100 µM		32.6 µM	15.5 µM	62 µM		12.1 µM	6.39 µM	2.04 µM	2.81 µM	2.81 µM		4.86 µM	6.62 µM	3.59 µM
COc1ccc(/C=C/CO)cc1OC	> 100 µM	> 100 µM	> 100 µM		> 100 µM	> 100 µM			> 100 µM	> 100 µM										
CC1=C[C@H]2C[C@@]3(C)O[C@@H]([C@]4(C)CC[C@H]([C@@H](C)C(=O)O)OO4)CC3C(C)(C)[C@H]2CC1 (stereo partly drawn)	2.79 µM	3.17 µM	0.273 µM	2.96 µM	4.2 µM		0.832 µM	0.296 µM	3.57 µM	3.05 µM										
